Source: patent publication US20260015311A1, “AMINO LIPID COMPOUND, PREPARATION METHOD THEREFOR, AND USE THEREOF” (SHENZHEN SHENXIN BIOTECHNOLOGY CO., LTD., priority 2022, published 2026)
Read-outs that look alike come from different tables or passages of the source.

Tests used:
liver = test: Targeting assay, fluorescence in liver after intramuscular injection; format: in vivo, mice; settings: 15 μg mRNA per animal, 6 h after injection, dissected liver
Protocol: The lipids were mixed with DSPC, CHO-HP, M-DMG2000 (i.e. PEG2000-DMG) in a molar ratio of 50:10:38.5:1.5 and dissolved in absolute ethanol. mRNA was dissolved in a sodium acetate solution (0.2M, pH=5.0). The samples of various prescriptions were prepared at a water phase:alcohol phase=9 ml/min: 3 ml/min by using a microfluidic equipment (MPE-L2) and a chip (SN.000035). The two phases were mixed by injecting them into the microfluidic chip according to the interface requirements, and then the drug solution was loaded into a 100KD dialysis bags, immersed in a beaker containing 1 L dialysis solution and wrapped with aluminum foil, and dialyzed at 100 rpm for 1 h at room temperature, and then the dialysis solution was replaced and the dialysis continued for 1 h.
Formulation of dialysis solution: 1×PBS+8% sucrose solution: 2 packets of 1×PBS powder were taken into a beaker, dissolved with 2 L DEPC water, added with 160 g of sucrose additionally, and mixed to obtain the 1×PBS+8% sucrose solution.
The mass ratio of mRNA:Lipids in the obtained lipid nanoparticles were about 1:10.
Fluorescent protein-encoding mRNA-LNP preparations containing Compound (I-6-II), MC3 or SM102, respectively were prepared by using the formulation method of mRNA lipid nanoparticle (LNP) preparations as described above, selecting a fluorescent protein-encoding mRNA as the mRNA and the compound (I-6-II), MC3 or SM102, respectively as the lipid.
Each preparation to be tested was administered to mice by intramuscular injection, with each animal receiving 15 μg mRNA preparation sample. 6 h after sample injection, the mice were anesthetized by isoflurane inhalation, and injected intraperitoneally with 200 μL of D-Luciferin (concentration 10 mg/ml) luciferase development substrate. […] After development of living imaging of the intramuscularly injected animals, they were immediately dissected, followed by observation of the fluorescence in the liver immediately after the dissection.

SD rats = settings: Covid-19 S protein mRNA-LNP, 100 μg mRNA/animal, intramuscular once a week for 3 weeks, versus ALC-0315 and SM-102, FIG. 9
[1] = Toxicokinetic, plasma concentration of compound I-6-II after empty liposome preparation; format: in vivo, cynomolgus monkeys; settings: for half-life / AUC(0-t) / Cmax / Tmax: cynomolgus monkey, plasma, intramuscular
Protocol: 1.9078 g of Compound I-6-II, 0.3985 g of DSPC, 0.7575 g of CHO-HP and 0.1972 g of PEG-DMG (average molecular weight of 2000) were weighed in the molar ratio of 49.5:10:39:1.5, dissolved in absolute ethanol and diluted to 237.5 mL to obtain an alcohol phase. The alcohol phase was mixed and encapsulated by using a microfluidic device (MPE-L^2), with an acetic acid-sodium acetate buffer (0.2 mol/L, pH=5) as the aqueous phase, and a volume ratio of aqueous phase:alcohol phase of 3:1. […]
The animal experiment was set up with a total of 5 groups (5 animals/gender/group), and the groups and the dosages thereof were as follows: negative control group (0 μg compound I-6-II/animal), empty liposome low-dosage group (300 μg compound I-6-II/animal) and empty liposome high-dosage group (1200 μg compound I-6-II/animal). The animals in each group were administered intramuscularly once every 2 weeks for a total of 3 times, i.e., administered on D1, D15 and D29.
Blood samples were collected from animals before and 4 h after the first (D1) and the last (D29) administration in the negative control group; and Blood samples were collected from animals before and 15 min, 1 h, 2 h, 4 h, 8 h, 24 h, 32 h and 48 h after the first (D1) and the last (D29) administration in the empty liposome group. The plasma concentration of compound I-6-II in cynomolgus monkeys was detected to investigate the exposure of compound I-6-II in cynomolgus monkeys after administration in each group of animals.
The main TK parameters of compound I-6-II in animals of the empty liposome low- and high-dosage groups after the first administration (D1) and the last administration (D29) are as shown in Table 7 below.

[2] = female, im, 300 ug, empty liposome low-dosage group (300 μg compound I-6-II/animal), D 1, female, Mean
[3] = female, im, 300 ug, empty liposome low-dosage group (300 μg compound I-6-II/animal), D 29, female, Mean
[4] = female, im, 1200 ug, empty liposome high-dosage group (1200 μg compound I-6-II/animal), D 1, female, Mean
[5] = female, im, 1200 ug, empty liposome high-dosage group (1200 μg compound I-6-II/animal), D 29, female, Mean
[6] = male, im, 300 ug, empty liposome low-dosage group (300 μg compound I-6-II/animal), D 1, male, Mean
[7] = male, im, 300 ug, empty liposome low-dosage group (300 μg compound I-6-II/animal), D 29, male, Mean
[8] = male, im, 1200 ug, empty liposome high-dosage group (1200 μg compound I-6-II/animal), D 1, male, Mean
[9] = male, im, 1200 ug, empty liposome high-dosage group (1200 μg compound I-6-II/animal), D 29, male, Mean

In the case of `CCCCCCCCCOC(=O)CCCCCCCN(CCCCCCCC(=O)OC(CCCCCCCC)CCCCCCCC)[C@@H]1CCC[C@H](O)C1` [Compound (I-6-II)], the “fluorescence intensity in liver” value (liver) is reported as 2.49E+05, the moderate claudication (SD rats) is reported as “significantly reduced or decreased” and the “severe swelling at the injection site” value (SD rats) is reported as “significantly reduced or decreased”. The accumulation ([1]; after 4 weeks of continuous administration (3 times in total), cynomolgus monkeys) was “did not accumulate”, the half-life ([1]; both sexes, cynomolgus monkeys, over the empty liposome groups, read-out: plasma half-life) was 4.68 to 6.45 h and the AUC(0-t) [1, 2] was 838 ng·h/mL. For the same molecule, the Cmax [1, 2] was 79.1 ng/mL, the Tmax [1, 2] was 3.2 h and the half-life ([1]; female, im, 300 ug, empty liposome low-dosage group (300 μg compound I-6-II/animal), D 1, female, Mean, read-out: t1/2 (converted)) was 5.28 h. The AUC(0-t) [1, 3] was 783 ng·h/mL, the Cmax [1, 3] was 59.3 ng/mL and the Tmax [1, 3] was 6 h. The half-life ([1]; female, im, 300 ug, empty liposome low-dosage group (300 μg compound I-6-II/animal), D 29, female, Mean, read-out: t1/2 (converted)) was 3.58 h, the AUC(0-t) [1, 4] was 4570 ng·h/mL and the Cmax [1, 4] was 334 ng/mL. For the same molecule, the Tmax [1, 4] was 5 h, the half-life ([1]; female, im, 1200 ug, empty liposome high-dosage group (1200 μg compound I-6-II/animal), D 1, female, Mean, read-out: t1/2 (converted)) was 5.07 h and the AUC(0-t) [1, 5] was 3090 ng·h/mL. For the same molecule, the Cmax [1, 5] was 194 ng/mL, the Tmax [1, 5] was 8 h and the half-life ([1]; female, im, 1200 ug, empty liposome high-dosage group (1200 μg compound I-6-II/animal), D 29, female, Mean, read-out: t1/2 (converted)) was 5.29 h. It also gave an AUC(0-t) [1, 6] of 652 ng·h/mL, a Cmax [1, 6] of 50.6 ng/mL and a Tmax [1, 6] of 4.8 h. For the same molecule, the half-life ([1]; male, im, 300 ug, empty liposome low-dosage group (300 μg compound I-6-II/animal), D 1, male, Mean, read-out: t1/2 (converted)) was 5.1 h, the AUC(0-t) [1, 7] was 623 ng·h/mL and the Cmax [1, 7] was 42.4 ng/mL. For the same molecule, the Tmax [1, 7] was 7.2 h, the half-life ([1]; male, im, 300 ug, empty liposome low-dosage group (300 μg compound I-6-II/animal), D 29, male, Mean, read-out: t1/2 (converted)) was 5.59 h and the AUC(0-t) [1, 8] was 2240 ng·h/mL. It also gave a Cmax [1, 8] of 198 ng/mL, a Tmax [1, 8] of 3.2 h and a half-life ([1]; male, im, 1200 ug, empty liposome high-dosage group (1200 μg compound I-6-II/animal), D 1, male, Mean, read-out: t1/2 (converted)) of 6.07 h. It also gave an AUC(0-t) [1, 9] of 2280 ng·h/mL, a Cmax [1, 9] of 146 ng/mL and a Tmax [1, 9] of 8 h. For the same molecule, the half-life ([1]; male, im, 1200 ug, empty liposome high-dosage group (1200 μg compound I-6-II/animal), D 29, male, Mean, read-out: t1/2 (converted)) was 6.45 h.
